For 6 compounds, IC50 results are on record in patent US20090264425A1, “CHEMICAL COMPOUNDS” (PFIZER LIMITED, priority 2004, published 2009).

SMILES strings stand for the structures.

This assay addresses T1, HIV-1 reverse transcriptase (Human immunodeficiency virus type 1 group M subtype B, UniProt P04585).
T1 construct: purified recombinant HIV-1 reverse transcriptase (RT, EC, 2.7.7.49); made in house; host or cells: Escherichia coli
In words: Inhibition of HIV-1 reverse transcriptase enzyme ([3H]-Flashplate enzyme assay, 384-well). It is filed as biochemical. The conditions noted are these: purified recombinant HIV-1 RT expressed in Escherichia Coli; 5% final DMSO. An excerpt: The activity of the compounds of the invention as reverse transcriptase inhibitors may be measured using the following assay.
Inhibition of HIV-1 Reverse Transcriptase Enzyme
The reverse transcriptase activity of the compounds of the invention may be assayed as follows. Using the purified recombinant HIV-1 reverse transcriptase (RT, EC, 2.7.7.49) obtained by expression in Escherichia Coli, a 384-well plate assay system was established for assaying a large number of samples using the [3H]-Flashplate enzyme assay system (NEN-SMP 410A) following the manufacturer's recommendations. The compounds were dissolved in 100% DMSO and diluted with the appropriate buffer to a 5% final DMSO concentration. The inhibitory activity was expressed in percent inhibition relative to the DMSO control.
In general, IC50 refers to the concentration that gives 50% inhibition. In the case of `N#Cc1cc(Cl)cc(Oc2cc(Cl)ccc2OCC(=O)N2CCCc3cc(S(N)(=O)=O)ccc32)c1` [Example 1, 1-{[4-Chloro-2-(3-chloro-5-cyanophenoxy)phenoxy]acetyl}-1,2,3,4-tetrahydroquinoline-6-sulfonamide], the IC50 is 26.1 nM.

For `N#Cc1cc(Cl)cc(Oc2cc(Cl)ccc2OCC(=O)Nc2ccc(S(N)(=O)=O)cc2Cl)c1` [Example 9, N-[4-(Aminosulfonyl)-2-chlorophenyl]-2-[4-chloro-2-(3-chloro-5-cyanophenoxy)phenoxy]acetamide], the IC50 turned out to be 6 nM.

With `N#Cc1cc(Cl)cc(Oc2cc(Cl)ccc2OCC(=O)N2CCc3ccc(S(=O)(=O)N4CCOCC4)cc3C2)c1` [Example 16], the IC50 came to 541 nM.

In the case of `Cc1cc(CN(C)C(=O)COc2cc(Cl)ccc2Oc2cc(Cl)cc(C#N)c2)on1` [Example 25], the IC50 worked out at 2180 nM.

Consider `Cc1nc(S(N)(=O)=O)ccc1NC(=O)COc1ccc(Cl)cc1Sc1cc(Cl)cc(C#N)c1` [Example 46, N-[6-(Aminosulfonyl)-2-methylpyridin-3-yl]-2-{4-chloro-2-[(3-chloro-5-cyanophenyl)thio]phenoxy}acetamide], for which the IC50 stood at 27.7 nM.

Regarding `Cc1cnccc1NC(=O)COc1cc(Cl)ccc1Oc1cc(Cl)cc(C#N)c1` [Example 50], the IC50 came out at 5.68 nM.
